In patent US20200247897A1, “THERAPEUTIC ANTIBODIES BASED ON MUTATED IGG HEXAMERS” (GENMAB B.V., priority 2017, published 2020):
Where two headings read alike, the source gives them in different places.

Experiments:
DLD-1 = assay: Drug combination screen (ATPlite, Synergy Score), DLD-1
SNU-C2B = assay: Drug combination screen (ATPlite, Synergy Score), SNU-C2B
SW480 = assay: Drug combination screen (ATPlite, Synergy Score), SW480; type: cell-based, human
LS-411N = assay: Drug combination screen (ATPlite, Synergy Score), LS-411N; type: cell-based, human
HCT 116 = assay: Drug combination screen (ATPlite, Synergy Score), HCT 116
[1] = compound in combination with IgG1-hDR5-01-G56T-E430G + IgG1-hDR5-05-E430G, DLD-1, 120 hour ATPlite, 6x6 matrix
[2] = compound in combination with IgG1-hDR5-01-G56T-E430G + IgG1-hDR5-05-E430G, SNU-C2B, 72 hour ATPlite, 6x6 matrix
[3] = compound in combination with IgG1-hDR5-01-G56T-E430G + IgG1-hDR5-05-E430G, SW480, 72 hour ATPlite, 6x6 matrix
[4] = compound in combination with IgG1-hDR5-01-G56T-E430G + IgG1-hDR5-05-E430G, LS-411N, 72 hour ATPlite, 6x6 matrix
[5] = compound in combination with IgG1-hDR5-01-G56T-E430G + IgG1-hDR5-05-E430G, HCT 116, 120 hour ATPlite, 6x6 matrix

Molecule	Synergy Score DLD-1 (DLD-1; [1])	Synergy Score SNU-C2B (SNU-C2B; [2])	Synergy Score SW480 (SW480; [3])	Synergy Score LS-411N (LS-411N; [4])	Synergy Score HCT-116 (HCT 116; [5])	Synergy Score DLD-1 (DLD-1)	Synergy Score SNU-C2B (SNU-C2B)	Synergy Score SW480 (SW480)	Synergy Score LS-411N (LS-411N)	Synergy Score HCT-116 (HCT 116)
O=C(CCCCCCC(=O)Nc1ccccc1)NO	4.4	11	7.3	4.4	2.5					
CC[C@@]1(O)C(=O)OCc2c1cc1n(c2=O)Cc2cc3cc(O)ccc3nc2-1 [10-Hydroxycamptothecin]						21.9	12.4	30.1	16.9	9.6
CC1(C)CCC(CN2CCN(c3ccc(C(=O)NS(=O)(=O)c4ccc(NCC5CCOCC5)c([N+](=O)[O-])c4)c(Oc4cnc5[nH]ccc5c4)c3)CC2)=C(c2ccc(Cl)cc2)C1 [ABT-199]	0	0	0	0.1	0					
CC1(C)CCC(c2ccc(Cl)cc2)=C(CN2CCN(c3ccc(C(=O)NS(=O)(=O)c4ccc(N[C@H](CCN5CCOCC5)CSc5ccccc5)c(S(=O)(=O)C(F)(F)F)c4)cc3)CC2)C1 [ABT-263]	3.4	1	8	7.6	0					
CN(C)CC[C@H](CSc1ccccc1)Nc1ccc(S(=O)(=O)NC(=O)c2ccc(N3CCN(Cc4ccccc4-c4ccc(Cl)cc4)CC3)cc2)cc1[N+](=O)[O-] [ABT-737]	1.5	1.1	7.5	4.2	0					
C[C@]1(c2nc3c(C(N)=O)cccc3[nH]2)CCCN1 [ABT-888]		0.1	0	0.7						
Cc1ccc(C(=O)Nc2ccc(CN3CCN(C)CC3)c(C(F)(F)F)c2)cc1C#Cc1cnc2cccnn12 [AP24534]	4.3	1.8	3.7	2.6	1.4					
C=CC(=O)Nc1ccc2ncnc(Nc3ccc(OCc4cccc(F)c4)c(Cl)c3)c2c1 [AST-1306]	0.3	0.7	0.9	1.8	0.1					
Cn1cnc2c(F)c(Nc3ccc(Br)cc3Cl)c(C(=O)NOCCO)cc21 [AZD6244]	1.5	0.6	11.7	0.7	2.7					
COc1ccc(-c2ccc3c(N4CCOC[C@@H]4C)nc(N4CCOC[C@@H]4C)nc3n2)cc1CO [AZD 8055]	3	12.2	3.9	10	1.7					
Cn1c(=O)n(-c2ccc(C(C)(C)C#N)cc2)c2c3cc(-c4cnc5ccccc5c4)ccc3ncc21 [BEZ235]	2.4	5.4	3.2	1.1	1.4					
CCN1CCN(c2ccc(Nc3cc(N(C)C(=O)Nc4c(Cl)c(OC)cc(OC)c4Cl)ncn3)cc2)CC1 [BGJ398]	1	0.8	1.6	1.4	0.1					
C[C@@]1(C(=O)Nc2ccc(F)nc2)CCCN1c1nc(Nc2cc(C3CC3)n[nH]2)c2cccn2n1 [BMS-754807]	11.3	1.3	5.9	10.8	2.1					
O=C(/C=C/c1cccc(S(=O)(=O)Nc2ccccc2)c1)NO [Belinostat]	8.6	16.4	10.2	4.5	4.1					
CC[C@H](NC(=O)[C@H](C)NC)C(=O)N1C[C@@H](O)C[C@H]1Cc1c(-c2[nH]c3cc(F)ccc3c2C[C@@H]2C[C@H](O)CN2C(=O)[C@H](CC)NC(=O)[C@H](C)NC)[nH]c2cc(F)ccc12 [Birinapant, reference compound]	5.8	37	54.5	61.2	16.4					
C[C@@H]1CCN(C(=O)CC#N)C[C@@H]1N(C)c1ncnc2[nH]ccc12 [CP-690550]	0.1	0.1	0	0.6	0					

Molecule	Synergy Score DLD-1 (DLD-1; [1])	Synergy Score SNU-C2B (SNU-C2B; [2])	Synergy Score SW480 (SW480; [3])	Synergy Score LS-411N (LS-411N; [4])	Synergy Score HCT-116 (HCT 116; [5])	Synergy Score DLD-1 (DLD-1)	Synergy Score SNU-C2B (SNU-C2B)	Synergy Score SW480 (SW480)	Synergy Score LS-411N (LS-411N)	Synergy Score HCT-116 (HCT 116)
N.N.O=C([O-])C1(C(=O)[O-])CCC1.[Pt+2] [Carboplatin]	11.3	11.6	19.5	12	5.8					
N.N.[Cl][Pt][Cl] [Cisplatin]	8.8	12.9	18.9	15.4	6.7					
CC1=C(C(=O)Nc2cc3cn[nH]c3cc2F)C(c2ccc(C(F)(F)F)cc2)CC(=O)N1 (centres unmarked) [Compound G5K429286A]	4.9	5.3	5.3	9.8	2.6					
C[C@@H](Oc1cc(-c2cnn(C3CCNCC3)c2)cnc1N)c1c(Cl)ccc(F)c1Cl [Crizotinib]	13.4	5.4	8.9		7.7					
CC(C)(C)c1nc(-c2cccc(NS(=O)(=O)c3c(F)cccc3F)c2F)c(-c2ccnc(N)n2)s1 [Dabrafenib]	2.2	0.5	3.1	0.5	0.7					
C[C@@H]1C[C@H]2[C@@H]3CCC4=CC(=O)C=C[C@]4(C)[C@@]3(F)[C@@H](O)C[C@]2(C)[C@@]1(O)C(=O)CO [Dexamethasone]	0.1	0.8	0	0.4	0					
COc1cccc2c1C(=O)c1c(O)c3c(c(O)c1C2=O)C[C@@](O)(C(=O)CO)C[C@@H]3O[C@H]1C[C@H](N)[C@H](O)[C@H](C)O1 [Doxorubicin]	16.2	18	20.5	9.4	4.6					
Cn1cc(C2=C(c3cn(C4CCN(Cc5ccccn5)CC4)c4ccccc34)C(=O)NC2=O)c2ccccc21 [Enzastaurin]	0.9	0.5	6.3	5.6	0.6					
COc1cccc2c1C(=O)c1c(O)c3c(c(O)c1C2=O)C[C@@](O)(C(=O)CO)C[C@@H]3O[C@H]1C[C@H](N)[C@@H](O)[C@H](C)O1 [Epirubicin]	15.6	15.1	17.7	5.8	4.9					
CO[C@H]1C[C@@H]2CC[C@@H](C)[C@@](O)(O2)C(=O)C(=O)N2CCCC[C@H]2C(=O)O[C@H]([C@H](C)C[C@@H]2CC[C@@H](OCCO)[C@H](OC)C2)CC(=O)[C@H](C)/C=C(\C)[C@@H](O)[C@@H](OC)C(=O)[C@H](C)C[C@H](C)/C=C/C=C/C=C/1C [Everolimus]	0.4	3.2	1.6	0.3	0.4					
CS(=O)(=O)c1ccc(C(=O)Nc2ccc(Cl)c(-c3ccccn3)c2)c(Cl)c1 [GDC-0449]	0.1	0.3	0.1	0.2	0					
OCCn1cc(-c2ccc3c(c2)CC/C3=N\O)c(-c2ccncc2)n1 [GDC-0879]	0.1	0.7	1.6	0.4	0.2					
CS(=O)(=O)N1CCN(Cc2cc3nc(-c4cccc5[nH]ncc45)nc(N4CCOCC4)c3s2)CC1 [GDC-0941]	4.9	7.1	12.9	12.4	2					
CN(C)CCCn1cc(C2=C(c3c[nH]c4ccccc34)C(=O)NC2=O)c2ccccc21 [GF 109203X]						4.3	1.6	6.2	5.3	3
O=C1NC(=O)/C(=C/c2ccc3nccc(-c4ccncc4)c3c2)S1 [GSK1059615]	0.4	0.8	1.7	0.4	0.6					
TW-37			10.5	29.9	5.4					
